The values below come from patent US7662842B2, “Thiazolidinone amides, thiazolidine carboxylic acid amides, and serine amides, including polyamine conjugates thereof, as selective anti-cancer agents” (Ohio State Univesity Research Foundation, priority 2003, dated 2010).

Counter-ions that a name gives are not always drawn. Like-named read-outs stand apart in the source and are kept apart here.

One data set deals with SKMEL-188 melanoma cells. Nature of the data set: Sulforhodamine B assay in melanoma cells, SKMEL-188. Particulars: SRB assay, 48 h incubation, melanoma cell line. Format: cell-based. As to the method:
(§1) SKMEL-188 cells were cultured in Ham's F10 medium (Gibco Invitrogen, Inc., Grand Island, N.Y.) plus 5% fetal bovine serum (Cellgro Mediatech, Inc., Herndon, Va.) and 1% antibiotic/antimycotic mixture (Sigma-Aldrich, Inc., St. Louis, Mo.). WM-164 cells (gift of Dr. Meenhard Herlyn, Wistar Inst., Philadelphia, Pa.) and human dermal fibroblasts (Cascade Biologics, Inc., Portland, Oreg.) were cultured in DMEM medium (Cellgro Mediatech, Inc.) supplemented with 5% fetal bovine serum, 1% antibiotic.antimycotic mixture and bovine insulin ([…], Sigma-Aldrich, Inc.). Human dermal fibroblasts were used as a control to examine the effects of compounds on stromal environment. Thus, the effect of the various compounds on melanoma cells versus fibroblasts would document their potential selectivity.
(§2) Sulforhodamine B Assay: Cells were seeded into 96-well plates at 5000 cells/well. After 12 hours, media were changed and serial dilutions of compounds were added. Cells were incubated with each compound for 48 hours. Fresh media containing the test compound were changed ever 24 hours. Thereafter, total cell protein corresponding to cell numbers (both viable and non-viable cells) were measured using the sulforhodamine B (SRB) assay according to manufacturer's protocol (Sigma-Aldrich, Inc.) (Rubinstein et al., “Comparison of in vitro Anticancer Drug-screening Data Generated with a Tetrazolium Assay Versus a Protein Assay Against a Diverse Panel of Human Tumor Cell Lines,” J. Natl. Cancer Inst. 82:1113-1118 (1990); Dothager et al., “Synthesis and Identification of Small Molecules that Potently Induce Apoptosis in Melanoma Cells Through GI Cell Cycle Arrest,” J. Am. Chem. Soc. 127:8686-8696 (2005), each of which is hereby incorporated by reference in its entirety). Briefly, cells were fixed with trichloracetic acid, washed and incubated with sulforhodamine B for 30 minutes. After another wash, dye incorporated into the cells was solubilized and measured using a plate reader at 565 nm.
(§3) Statistical Analysis: Data is presented as mean±SEM (n=6-8). […] Statistical analyses were performed with Student's t-test (*p<0.05; **p<0.005).
(§4) DTIC and Taxol were assayed in the same way for comparison and served as internal quality controls in the different batches of assay. For comparison, the activities of 5R and 5S were measured.
(In general: In SRB staining, fixed cells bind dye roughly in proportion to their protein.)

For a further data set, the system named is WM-164 cells. Briefly: Sulforhodamine B assay in melanoma cells, WM-164. Format: cell-based. The note with it: SRB assay, 48 h incubation, melanoma cell line. The procedure:
as §1, §2, §3, §4

The next data set concerns human dermal fibroblasts. Nature of the data set: Sulforhodamine B assay, fibroblast control cells. Type of data set: cell-based. The note with it: SRB assay, 48 h incubation. As to the method: as §1, §2, §3, §4
The subject of data set [1] is human breast cancer cell line (MCF-7). Briefly: SRB cytotoxicity assay, MCF-7. Type of data set: cell-based. The procedure:
(§5) For in vitro cytotoxicity screening, 1000 to 5000 cells were plated into each well of 96-well plates depending on growth rate, and exposed to different concentrations of a test compound for 96 h in three to five replicates. All the compounds were dissolved in dimethyl sulfoxide at 5 to 20 mM, and diluted to desired concentrations in complete culture medium. Cell numbers at the end of the drug treatment were measured by the SRB assay (Gududuru et al., “Synthesis and Biological Evaluation of Novel Cytotoxic Phospholipids for Prostate Cancer,” Bioorg. Med. Chem. Lett. 14:4919-4923 (2004); Rubinstein et al., “Comparison of in vitro Anticancer-Drug-Screening Data Generated with a Tetrazolium Assay Versus a Protein Assay Against a Diverse Panel of Human Tumor Cell Lines,” J. Natl. Cancer Inst. 82:1113-1118 (1990), each of which is hereby incorporated by reference in its entirety). Briefly, the cells were fixed with 10% of trichloroacetic acid, stained with 0.4% SRB, and the absorbances at 540 nm was measured using a plate reader (DYNEX Technologies, Chantilly, Va.). […] A sandwich ELISA (Roche, Mannheim, Germany) utilizing monoclonal antibodies specific for DNA and histones was used to quantify degree of apoptosis induced by the analogs after 72 h exposure. This assay measures DNA-histone complexes (mono- and oligonucleosomes) released into cytoplasm from the nucleus during apoptosis.
In vitro cytotoxicity assay was performed by the same sulforhodamine B (SRB) assay (described above). The compounds shown in Table 8 below where tested for activity against the breast cancer and ovarian cancer cell lines.
RH7777 and CV-1 cells were used as negative controls and MCF-7 cell line (breast cancer) was included to examine the selectivity.

Data set [2] has as its system PPC-1 human prostate cancer cells. Nature of the data set: SRB cytotoxicity assay, PPC-1. Format: cell-based. The note with it: prostate cancer cell line. As to the method: (§6) Dr. Mitchell Steiner at University of Tennessee Health Science Center, kindly provided PPC-1 and TSU-Pr1 cells.
as §5

For data set [3], the system named is PC-3 human prostate cancer cells. Briefly: SRB cytotoxicity assay, PC-3. Type of data set: cell-based. The note with it: 96 h exposure, prostate cancer cell line. As to the method: as §5
Data set [4] has as its system RH7777 rat hepatoma cells. Briefly: SRB cytotoxicity assay, RH7777 control cell line. Type of data set: cell-based. The note with it: SRB assay, 96 h exposure, control cell line. As to the method:
as §5

In data set [5] the test system is DU-145 human prostate cancer cells. Nature of the data set: SRB cytotoxicity assay, DU-145. Type of data set: cell-based. The procedure: as §5
Data set [6] has as its system LNCaP human prostate cancer cells. Briefly: SRB cytotoxicity assay, LNCaP. Format: cell-based. Particulars: 96 h exposure, prostate cancer cell line. The procedure:
as §5

For data set [7], the system named is TSU-Pr1 human prostate cancer cells. Nature of the data set: SRB cytotoxicity assay, TSU-Pr1. Format: cell-based. Particulars: prostate cancer cell line. As to the method:
as §6, §5

Another data set concerns CV-1 cells. Nature of the data set: SRB cytotoxicity assay, CV-1 control cell line. Type of data set: cell-based. As to the method:
For in vitro cytotoxicity screening, 1000 to 5000 cells were plated into each well of 96-well plates depending on growth rate, and exposed to different concentrations of a test compound for 96 h in three to five replicates. All the compounds were dissolved in dimethyl sulfoxide at 5 to 20 mM, and diluted to desired concentrations in complete culture medium. Cell numbers at the end of the drug treatment were measured by the SRB assay (Gududuru et al., “Synthesis and Biological Evaluation of Novel Cytotoxic Phospholipids for Prostate Cancer,” Bioorg. Med. Chem. Lett. 14:4919-4923 (2004); Rubinstein et al., “Comparison of in vitro Anticancer-Drug-Screening Data Generated with a Tetrazolium Assay Versus a Protein Assay Against a Diverse Panel of Human Tumor Cell Lines,” J. Natl. Cancer Inst. 82:1113-1118 (1990), each of which is hereby incorporated by reference in its entirety). Briefly, the cells were fixed with 10% of trichloroacetic acid, stained with 0.4% SRB, and the absorbances at 540 nm was measured using a plate reader (DYNEX Technologies, Chantilly, Va.). […] A sandwich ELISA (Roche, Mannheim, Germany) utilizing monoclonal antibodies specific for DNA and histones was used to quantify degree of apoptosis induced by the analogs after 72 h exposure. This assay measures DNA-histone complexes (mono- and oligonucleosomes) released into cytoplasm from the nucleus during apoptosis. RH7777 cells were employed because of nonspecific cytotoxicity of compound 4 in receptor-negative cells as well as receptor-positive prostate cancer cells.
RH7777 and CV-1 cells were used as negative controls and MCF-7 cell line (breast cancer) was included to examine the selectivity. 5-Fluorouracil was used as reference drug.

[8] abbreviates: Homo sapiens, WM164, read-out: IC50 WM-164.
Setting [9] is: Homo sapiens, PPC-1, 96 h exposure.

For the compound `CCCCCCCCCCCCCCOCCCNCCCNC(=O)[C@@H](CO)NC(=O)OC(C)(C)C`, the IC50 is 3.8 µM with SKMEL-188 melanoma cells (SK-MEL-188, 48 h); 3.3 µM in the data set with WM-164 cells (setting [8]); 3.4 µM with human dermal fibroblasts (Homo sapiens, Fibroblast, 48 h).

For the compound `CCCCCCCCCCCCCCCCCCNC(=O)C1CSC(c2ccoc2)N1` (centres unmarked) (as salt: hydrochloride) [Compound 12, 2-(furan-3-yl)-N-octadecylthiazolidine-4-carboxamide], the melting point was 99 °C.

Consider `CCCCCCCCCCCCCCCCCCNC(=O)[C@@H]1CSC(CCCCCCCCCCCC)N1` (mixture of isomers) [Compound 7, (2RS, 4R)-2-Dodecylthiazolidine-4-carboxylic acid octadecylamide], for which the melting point turned out to be 86 °C.

As for `CCCCCCCCCCCCCCCCCCNC(=O)[C@@H]1CSC(C2CCCCC2)N1` (mixture of isomers) [Compound 8, (2RS, 4R)-2-Cyclohexylthiazolidine-4-carboxylic acid octadecylamide], the IC50 in the data set on WM-164 cells (setting [8]) is greater than 50 µM.

The compound `CCCCCCCCCCCCCCCCCCNC(=O)[C@@H]1CSC(c2c[nH]c3ccccc23)N1` (mixture of isomers) [Compound 10, (2RS, 4R)-2-(1H-Indol-3yl)-thiazolidine-4-carboxylic acid octadecylamide] gave an IC50 in data set [1] (Homo sapiens, MCF7, SRB assay) of 10.6 µM.

Take `CCCCCCCCCCCCCCCCCCNC(=O)[C@@H]1CSC(c2ccc(OC)cc2)N1.Cl` (mixture of isomers) [Compound 15, (2RS, 4R)-2-(4-Methoxy-phenyl)-thiazolidine-4-carboxylic acid octadecylamide Hydrochloride]: the melting point came to 95 °C. This compound displayed an IC50 in the data set with SKMEL-188 melanoma cells (SK-MEL-188, 48 h) of 9.7 µM. Also, in the data set with WM-164 cells (setting [8]), the IC50 was 13.1 µM. In the data set with human dermal fibroblasts (Homo sapiens, Fibroblast, 48 h), this compound displayed an IC50 of 28 µM.

The compound `CCCCCCCCCCCCCCCCCCNC(=O)[C@@H]1CSC(c2cc(OC)c(OC)c(OC)c2)N1.Cl` (mixture of isomers) [Compound 17, (2RS, 4R)-2-(3,4,5-Trimethoxy-phenyl)-thiazolidine-4-carboxylic acid octadecylamide Hydrochloride] came in with a melting point of 115 °C. Further, in data set [2] (setting [9]), the midpoint of inhibition, the IC50, lay at 0.48 µM. The compound also came in with an IC50 in the data set on SKMEL-188 melanoma cells (SK-MEL-188, 48 h) of 1.8 µM. Further, the IC50 in the data set on WM-164 cells (setting [8]) was determined as 1.5 µM. Besides, the 50% inhibitory concentration (IC50) with human dermal fibroblasts (Homo sapiens, Fibroblast, 48 h) is 5.2 µM.

`CCCCCCCCCCCCCCCCCCNC(=O)[C@@H]1CSC(c2ccc(NC(C)=O)cc2)N1.Cl` (mixture of isomers) [Compound 18, (2RS, 4R)-2-(4-Acetylamino-phenyl)-thiazolidine-4-carboxylic acid octadecylamide Hydrochloride] yielded a melting point of 170 °C. Further, the IC50 in the data set on SKMEL-188 melanoma cells (SK-MEL-188, 48 h) is 2.7 µM. Moreover, in the data set on WM-164 cells (setting [8]), the IC50 turned out to be 5.5 µM. The IC50 in the data set on human dermal fibroblasts (Homo sapiens, Fibroblast, 48 h) is greater than 10 µM.

With `CCCCCCCCCCCCCCCCCCNC(=O)[C@@H]1CSC(c2ccc(F)cc2)N1` (mixture of isomers) [Compound 19, (2RS, 4R)-2-(4-Fluoro-phenyl)-thiazolidine-4-carboxylic acid octadecylamide], the half-inhibitory concentration (IC50) in [3] (Homo sapiens) was 6.8 µM.

As for `CCCCCCCCCCCCCCCCCCNC(=O)[C@@H]1CSC(c2ccc([N+](=O)[O-])cc2)N1` (mixture of isomers) [Compound 21, (2RS, 4R)-2-(4-Nitro-phenyl)-thiazolidine-4-carboxylic acid octadecylamide], the IC50 in data set [1] (Homo sapiens, MCF7, SRB assay) was 15.3 µM.

Regarding `CCCCCCCCCCCCCCCCCCNC(=O)[C@@H]1CSC(c2ccc(C#N)cc2)N1` (mixture of isomers) [Compound 22, (2RS, 4R)-2-(4-Cyano-phenyl)-thiazolidine-4-carboxylic acid octadecylamide], the melting point came out at 90 °C. In addition, in data set [4] (Rattus norvegicus, RH7777), the IC50 is greater than 20 µM. In addition, the IC50 in data set [5] (Homo sapiens, DU-145, read-out: IC50 DU-145, 96 h exposure, prostate cancer cell line) was greater than 20 µM. This compound showed an IC50 in data set [6] (Homo sapiens, LNCaP) of 5.9 µM. Also, in data set [2] (setting [9]), inhibition was half-maximal at 5 µM (IC50). This compound yielded an IC50 in data set [7] (Homo sapiens, TSU-Pr1, 96 h exposure) greater than 20 µM.

With `CCCCCCCCCCCCCCCCCCNC(=O)[C@@H]1CSC(c2c(Cl)cccc2Cl)N1` (mixture of isomers) [Compound 24, (2RS, 4R)-2-(2,6-Dichloro-phenyl)-thiazolidine-4-carboxylic acid octadecylamide], the melting point was found to be 49 °C.

`CCCCCCCCCCCCCCCCCCNC(=O)[C@@H]1CSC(c2ccc(-c3ccccc3)cc2)N1.Cl` (mixture of isomers) [Compound 27, (2RS, 4R)-2-Biphenyl-4-yl-thiazolidine-4-carboxylic acid octadecylamide Hydrochloride] registered a melting point of 130 °C.

Take `COc1cc(C2NC(C(=O)NCCCNCCCCNCCCN)CS2)cc(OC)c1OC` (mixture of isomers) [Compound 224]: the IC50 in [4] was 71.9 µM; in [5] (read-out: IC50 DU-145, 96 h exposure, prostate cancer cell line) it was 5.1 µM; in data set [3], 5.9 µM; in data set [6], 10.9 µM; in data set [2] (96 h exposure), 5 µM; in [7] (96 h exposure), 3 µM. In addition, the IC50 is greater than 100 µM in data set [1] (SRB assay) and 30.5 µM in the data set on CV-1 cells.

As to `CCCCCCCCCCCCCCCCCCNC[C@@H](CO)NC` [drawing 31], the IC50 came to 3.2 µM in the data set on SKMEL-188 melanoma cells (SK-MEL-188, 48 h); 3.6 µM in the data set with WM-164 cells (setting [8]); 1.6 µM with human dermal fibroblasts (Homo sapiens, Fibroblast, 48 h).

Consider `CCCCCCCCCCCCCCCCCCNC[C@@H](CO)NC` [drawing 32], for which the IC50 with SKMEL-188 melanoma cells was 3.1 µM; in the data set on WM-164 cells (read-out: IC50 WM-164) it was 3.6 µM; in the data set on human dermal fibroblasts, 2.3 µM.

The term IC50 denotes the concentration that gives 50% inhibition. Broadly, the melting point is the temperature of the solid-liquid transition.
